Measurements from patent USRE36374E, “1,2,3-triazole and tetrazole substituted piperidine or tetrahydropyridine compounds useful as acetylcholine agonists” (priority 1987, dated 1999).
Structures can show the parent of a compound that is named as a salt.

Key:
[1] = background; cited from earlier work
AcCh receptors = conditions: background; cited from earlier work
[2] = peripheral administration; background; cited from earlier work
[3] = peripheral administration; background; cited from earlier work; remark: listed apart in the source
[4] = biological target: central cholinergic receptors; assay: 3H-oxotremorine-M (Oxo-M) displacement from rat brain homogenates; type: binding; conditions: displacement of 3H-oxotremorine-M, pH 7.4, 40 min, 30° C
Method: (§1) Affinity to central cholinergic receptors in vitro was measured as the ability of the compounds to displace ^3 H-oxotremorine-M (Oxo-M) from rat brain homogenates, while affinity to central muscarinic M-1-receptors in vitro was measured as the ability of the compounds to displace ^3 H-pirenzepin (Pz) from rat brain homogenates.
^3 H-oxotremorine M binding
was performed essentially as described by Birdsdall et al., 1980. Briefly, rat brains were homogenized in 100 vol (w/v) 10 mM Na,K-phosphate buffer (pH 7.4) and aliquots incubated with ^3 H-oxotremorine M (84.9 Ci/m-mol, NEN) alone or in the presence of test compound in a total volume of 1.5 ml for 40 min. at 30° C. The reaction was stopped by adding 5 ml cold buffer and filtered through Whatman GF/B filters soaked previously in 0.1% polyethylenimin (Sigma) for minimum 30 min. The filters were washed once with the same volume of buffer, transferred to scintillation vials and extracted in scintillation fluid (Pico-fluor 15, Packard) for at least two hours before counted in a liquid scintillation spectrometer (Beckman LS 1800). Non-specific binding was estimated at 10 μM atropine and all estimations made in triplicate. At least two displacement curves were made for each compound tested.
Birdsdall N. J. M., Hulme E. C., and Burgen A. S. V. (1980). "The Character of Muscarinic Receptors in Different Regions of the Rat Brain". Proc. Roy. […] London (Series B) 207, 1.

[5] = biological target: T1, central muscarinic M-1-receptors (Rattus norvegicus, UniProt P08482); assay: 3H-pirenzepine (Pz) displacement from rat brain homogenates; type: binding; conditions: displacement of 1.0 nM 3H-pirenzepine, rat brain homogenates, 60 min, 25° C; read-out: Pz, IC50
T1 sequence (P08482 1-460): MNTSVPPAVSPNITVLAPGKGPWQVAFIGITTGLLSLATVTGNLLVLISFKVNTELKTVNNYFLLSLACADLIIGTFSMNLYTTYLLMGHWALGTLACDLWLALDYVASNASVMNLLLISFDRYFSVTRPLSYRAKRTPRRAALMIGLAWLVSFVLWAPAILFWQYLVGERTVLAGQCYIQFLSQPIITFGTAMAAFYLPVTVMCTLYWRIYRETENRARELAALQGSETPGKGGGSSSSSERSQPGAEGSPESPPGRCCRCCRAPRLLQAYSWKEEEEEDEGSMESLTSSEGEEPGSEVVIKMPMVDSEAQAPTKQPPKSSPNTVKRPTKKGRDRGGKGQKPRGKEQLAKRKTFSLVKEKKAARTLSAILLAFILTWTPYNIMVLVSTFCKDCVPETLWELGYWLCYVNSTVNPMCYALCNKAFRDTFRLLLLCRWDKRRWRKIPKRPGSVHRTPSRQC
Method: as §1
was performed essentially as described by Watson et al., 1983, the conditions being very much the same as for ^3 H-oxotremorine binding, except that aliquots were incubated with 1.0 nM ^3 H-pirenzepine for 60 min. at 25° C. and that the reaction was stopped by direct filtration followed by 3 washes with 4 ml buffer.
Watson, M., Yamamura, H. I., and Roeske, W. R. (1983). "A unique regulatory profile and regional distribution of ^3 H-pirenzepin binding in the rat provide evidence for distinct M1 and M2 muscarinic receptor subtypes". Life Sci. 32 (1983) 3001-3011.

Row | Compound | hydrolysis of ester group in vivo [1] | AcCh agonist activity (AcCh receptors) | central effects [2] | penetration of blood-brain barrier [3] | IC50 [4] | IC50 [5]
1 | COC(=O)C1=CCCN(C)C1 [Arecoline, methyl 1-methyl-1,2,5,6-tetrahydropyridine-3-carboxylate] | very rapidly hydrolyzed in vivo | AcCh agonist | very weak and frequently negligible central effects | capable of penetrating the BBB |  | 
2 | Cc1cnc(C2=CCCN(C)C2)s1 [Compound 90, 5-Methyl-2-(1-methyl-1,2,5,6-tetrahydro-3-pyridyl)-thiazole, hemifumarate] |  |  |  |  | 180 nM | 420 nM
3 | Cc1cnc(C2=CCCNC2)s1 [Compound 91, 5-Methyl-2-(1,2,5,6-tetrahydro-3-pyridyl)-thiazole, fumarate] |  |  |  |  | 360 nM | 1000 nM
4 | CSc1cnc(C2=CCCN(C)C2)s1 [Compound 93, 5-Methylthio-2-(1-methyl-1,2,5,6-tetrahydro-3-pyridyl)-thiazole, fumarate] |  |  |  |  | 18 nM | 130 nM
5 | Cc1cc(C2=CCCN(C)C2)nn1C [Compound 95, 1,5-Dimethyl-3-(1-methyl-1,2,5,6-tetrahydro-3-pyridyl)-pyrazole, dihydrochloride] |  |  |  |  | 350 nM | 180 nM
